Data published in ChEMBL document CHEMBL3507680, “University of Dundee, Gates Library screen for HepG2 cell viability”.

Assay: Human HepG2 cell viability assay in 384 well format
Format: toxicity, cell-based
Parameters: dose 125 nL, time 70.5 hour; cytotoxicity at 70.5 h: concentration not given beside the values
Conditions: HepG2 cells, read-out: Inhibition

| SMILES | cytotoxicity at 70.5 h [%] |
| --- | --- |
| CNC(=O)C1CN(C(=O)Cc2ccc(OC)cc2)Cc2cn(C)nc21 (stereo unspecified) | -7.07 |
| CC(C)COC(C)C(=O)NCc1ccc(OC(C)C)nc1 (stereo unspecified) | -3.57 |
| CN(CC(=O)N(C)C1CCN(CC2CCOC2)CC1)c1ccccc1 (stereo unspecified) | -4.84 |
| Cc1ccc(CN2CCn3c(COc4cccnc4)cnc3C2C)o1 (stereo unspecified) | -7.88 |
| O=C(NCCc1ccccn1)NC1CCN(c2ncccn2)CC1 | -8 |
| O=C(c1cccc(Cl)c1)N1CC[C@H]2[C@H]1CCN2CC1CCOCC1 | -8.99 |
| CCn1c(CNC(=O)Nc2nc(C)c(C)o2)nc2ccccc21 | 14.3 |
| COCCCN1CCCC2(CCN(S(=O)(=O)c3cccnc3)C2)C1=O (stereo unspecified) | 9.1 |
| COc1ccc(NC(=O)Cc2c(C)nc3c(c2C)c(=O)[nH]n3C)cn1 | -4.63 |
| O=C(NCCCc1ccc(F)cc1)c1ccc(N2CCOCC2)cc1 | 2.69 |
| Cc1cc(C(=O)N2C[C@@H](C(=O)O)[C@H](c3ccccc3C)C2)c(C)o1 | 13.2 |
| COCCOCC(=O)N1C[C@@H]2CC[C@H](Oc3ccccc3)[C@@H]2C1 | -3.37 |
| CCc1noc(CN(CC(=O)N2CCCCC2)c2ccc(C)cc2)n1 | -1.63 |
| c1cnc2c(c1)cc([C@H]1CCCO1)n2CCN1CCCC1 | -1.04 |
| CCCc1nc(CNc2nc(C)nc3oc(C)nc23)cs1 | -6.15 |
| CCn1cnc(NC(=O)N2CCC(c3ccc(Cl)cc3)C2)n1 (stereo unspecified) | 11.3 |
| CC(O)CN1CC2(CCC1=O)CCN(C(=O)c1cnn(C)c1)CC2 (stereo unspecified) | -1.73 |
| Cc1cccnc1C(=O)N1CCCC(Cc2cncc3ccccc23)C1 (stereo unspecified) | -3.08 |
| CC(C(=O)Nc1cccc(F)c1)N(C)CCN1CCOCC1 (stereo unspecified) | -4.4 |

| SMILES | cytotoxicity at 70.5 h [%] |
| --- | --- |
| CC(C)n1ccnc1C1CCCN(c2ccncc2F)C1 (stereo unspecified) | -5.94 |
| O=C1CC2(CCCCN2C(=O)c2ccsc2)CN1CC1CC1 (stereo unspecified) | 8.93 |
| CCC1=N[C@@]2(CC[C@@H]3CN(S(=O)(=O)CC)C[C@@H]32)C(=O)N1CC(C)C | -1.65 |
| O=C(Cc1ccccc1)N1CCC2(CC1)COCCN2CC1CC1 | -9.82 |
| Cc1cc(C)n(C2CCN(C(=O)c3cn4ccsc4n3)C2)n1 (stereo unspecified) | -7.56 |
| COC(=O)CCCC(=O)N(C)CC1Cc2ccccc2CN1C (stereo unspecified) | -8.82 |
| Cc1nc(OCC(=O)N2CCCC2)cc(-n2cccn2)n1 | -7.15 |
| COc1ccc(C(=O)c2cnc(C(C)C)n2C)cc1 | 17.7 |
| Cc1ccc(C(=O)NCCS(=O)(=O)N2CCSCC2)n1C | -2.8 |
| COCC(=O)N[C@H](C)c1onc(-c2ccccc2)c1C(=O)O | -4.32 |
| C1CCN(CCOC2CCNCC2)CC1 | 19.9 |
| O=C(CCn1ccc2cc(Br)ccc21)NC[C@@H]1CCCN2CCCC[C@H]12 | 19.3 |
| NC(=O)CC1CCCN(c2cncc(SCc3ccccc3)n2)C1 (stereo unspecified) | -1.35 |
| Cc1nc(C)n(C2CCCN(C(=O)CCCNc3ncccn3)C2)n1 (stereo unspecified) | -4.88 |
| CN(CC1CCN(c2ccccc2)C1)c1ccc(Cn2ccnc2)cn1 (stereo unspecified) | -13.6 |
| CCCn1ncc(C(=O)NC(C)c2c(C)nn(CC)c2C)c1C (stereo unspecified) | -8.47 |
| NC(=O)C1CN(C(=O)Nc2cc(Cl)cc(Cl)c2)CCO1 (stereo unspecified) | -3.67 |
| Cc1c(NC(=O)CN2CCC(Oc3cnccn3)CC2)cnn1C | -3.61 |
| COc1cc(N2CC[C@@H]3O[C@@H](C(=O)NC(C)C)C[C@@H]32)ncn1 | -8.65 |

| SMILES | cytotoxicity at 70.5 h [%] |
| --- | --- |
| CCN1Cc2ccccc2CC2(CCN(C(=O)N(C)C)CC2)C1=O | -5.37 |
| CN1CCOC(CNCc2cccc(OC(F)(F)F)c2)C1 (stereo unspecified) | -11.5 |
| CCOc1cccc2c1OCC(=O)N(c1ccc(N(C)C)cc1)C2 | -8.85 |
| COc1cccc(C(=O)C2CCCN(c3cc(C#N)ccn3)C2)c1 (stereo unspecified) | -10.3 |
| c1cncc(N2CCCC3(CN(Cc4cccs4)CCO3)C2)c1 (stereo unspecified) | 9.99 |
| CC(C)(C)NC(=O)c1ccccc1NC(=O)c1ccncc1 | -5.9 |
| CN(C)CCN1CCCC12CCN(C(=O)c1cnccn1)CC2 | 6.16 |
| CC(=O)Nc1nc(C(=O)NCc2ccnc(N3CCCC3)c2)cs1 | -6.6 |
| CC(C)CCC(=O)Nc1ccc2oc(=O)n(CCN(C)C)c2c1 | -1.73 |
| Cc1ccc(NC(=O)CCc2ccco2)cc1N1CCOC1=O | -10.1 |
| CNc1cc(C2CN(C(=O)c3ccccc3)CCO2)nc(C)n1 (stereo unspecified) | -5.28 |
| Cc1nc(C)n(CC2CCCN(CCC(=O)NC3CCCC3)C2)n1 (stereo unspecified) | 24.8 |
| Cc1cc(CN2CCN(C(=O)NCc3cccs3)CC2)no1 | -4.63 |
| Cc1ccc(C)c(-n2nnnc2SCN2CCCCC2=O)c1 | -3.06 |
| CS(=O)(=O)N1CC(=O)N(CCCc2ccccc2)CC(O)C1 (stereo unspecified) | -8.69 |
| CC(C)N(C)C(=O)c1ccc(Cl)c(NC(=O)COCC2CC2)c1 | -6.46 |
| CCC(C)NC(=O)CN1CCC2(CC1)OCCO2 (stereo unspecified) | 3.04 |
| Cc1nn(C)c(C)c1OCC(=O)N1CCC(O)(C(F)(F)F)CC1 | -6.23 |
